# Assay results from patent US20250057958A1, “CYTOTOXICITY TARGETING CHIMERAS FOR CCR2-EXPRESSING CELLS” (GLAXOSMITHKLINE INTELLECTUAL PROPERTY DEVELOPMENT LIMITED, priority 2022, published 2025).
# How the values were obtained:
# [1] = Blood drug concentration analysis (PK) in the in vivo depletion assay; design: species or system human CCR2 (hCCR2) knock-in mice; settings: human CCR2 (hCCR2) knock-in, C57 background, mouse, whole blood, LC-MS/MS, IV bolus 0.1 mpk compound + 10 mpk anti-cotinine antibody, 48 hours post-dose, read-out: Exposure of Compound of Formula (I) 48 hours post-dose
# Description: (§1) Human CCR2 (hCCR2) knock-in mice (C57 background) were dosed intravenously with a PBS solution containing a compound of Formula (I) to measure depletion of CCR2 expressing cells in peripheral blood. Peripheral blood from IV dosed mice was also analyzed to determine PK properties of the compounds of Formula (I).
# (§2) Administration to Animal: Solution formulation of antibody and compound of Formula (I) was injected (bolus injection) to the restrained mouse in the right/left lateral tail vein. Animals were dosed with 0.1 milligram per kilogram (mpk) of the compound of Formula (I) and 10 mpk of the anti-cotinine antibody.
# Collection of Blood for PK: Blood was collected at time points 0.25 hour, 2 hours, and […] following administration (50 μL/time point) through retro-orbital bleeding under mild isoflurane anesthesia.
# (§3) Terminal bleeding at end of experiment (48 hr): Approximately 250 μL of blood in K2EDTA tube and approximately 250 μL of blood in SST (serum separation tube) was collected from each mouse through retro-orbital bleeding under deep isoflurane anesthesia. After bleeding, each mouse was sacrificed by cervical dislocation. The blood distribution at termination was determined as follows: • For PK: 50 μL of K2EDTA blood was transferred to another tube for PK • Flow cytometry: Remaining blood (˜200 μL) was used for flow cytometry analysis. • For serum collection: serum separator tubes (BD) were centrifuged at 4° C., 5000 rpm for 15 minutes. Approximately 100 μL serum was separated and stored at −80° C. for further usage. • Blood drug concentration: Samples collected at the various timepoints (0.25 hr, 2 hr, 24 and 48 hr) were analyzed to determine blood drug concentration.
# Blood drug concentration analysis: Drug concentration in blood samples was determined by an LC-MS/MS-based bioanalytical method developed at Syngene. Samples were analyzed on Q-Trap, API-5500 LC-MS/MS system coupled with Exion UHPLC system from SCIEX, USA operated in multiple reaction monitoring mode employing electrospray ionization technique in positive polarity. Analyte and internal standard peaks were resolved on Synergi Polar, 75×2.0 mm, 4 μcolumn using mobile phase 10 mM Ammonium acetate in Milli-Q water as phase A and 0.1% Formic acid in acetonitrile as Phase B. Gradient elution was performed with initial composition 95% Phase A at 0.0 min, holding it for 0.2 minutes, ramping to 5% by 1.0 minute, keeping the same for next 0.5 minutes and coming back to 95% by 1.6 minutes. The total run time was 2 minutes.
# Working dilutions for calibration curve and quality control standards were prepared by serially diluting 20 mg/mL stock solution with DMSO. Spiked concentrations for calibration curve in the whole blood ranged from 1 ng/mL to 1000 ng/mL. […]
# [2] = system: CCR2 expressing cells (CD11b+Ly6c+Hi monocytes); assay: In vivo depletion assay (flow cytometry of peripheral blood); design: species or system human CCR2 (hCCR2) knock-in mice; settings: IV bolus 0.1 mpk compound + 10 mpk anti-cotinine antibody (mouse IgG2a Fc), 48 hours
# Description: as §1
# Formulations preparation: On the day of experiment, the stock solution of the compound of Formula (I) was removed from storage at −20° C. and thawed at room temperature. Anti-cotinine antibody having a heavy chain sequence of SEQ ID NO: 13 and a light chain sequence of SEQ ID NO: 14 (rabbit variable region sequence with mouse IgG2a Fc domain), if required was removed from storage at −80° C. and thawed at room temperature. Antibody vials were immediately transferred into wet ice after thawing. Compounds of Formula (I) were further diluted in DMSO as per experimental requirements.
# Formulation composition: The formulation composition was Saline: DMSO: PBS. Saline was added based on the quantity required and then stock solution of the compound of Formula (1) prepared in DMSO, followed by addition of antibody in PBS. Formulations were incubated at room temperature for 30 minutes before administration to the mouse. DMSO was used at 1 to 2% (v/v) in the final formulation.
# as §2, §3
# Flow cytometry analysis: CCR2 depletion in peripheral blood was determined by flow cytometry. Briefly, peripheral blood was collected from all animals at the end of study termination and processed. […]
# Percent depletion of CD11b+Ly6c+Hi cells and CCR2 expression for the different treatment groups was determined. […]
SMILES,concentration at 48 h [1] [ng/mL],% Depletion of CCR2 expressing cells [2] [%]
"CC(=O)N[C@@H]1C[C@H](NC(C)(C)C)CC[C@@H]1N1CC[C@H](Nc2nc(CCCCNC(=O)[C@H]3CC[C@H](NC(=O)CCCO[C@H]4CC[C@H](OCCNC(=O)[C@H]5CC(=O)N(C)[C@@H]5c5cccnc5)CC4)CC3)nc3ccc(C(F)(F)F)cc23)C1=O [Example 3, (2S,3S)-N-(2-(((1R,4S)-4-(4-(((1S,4R)-4-((4-(4-(((S)-1-((1S,2R,4R)-2-Acetamido-4-(tert-butylamino)cyclohexyl)-2-oxopyrrolidin-3-yl)amino)-6-(trifluoromethyl)quinazolin-2-yl)butyl)carbamoyl)cyclohexyl)amino)-4-oxobutoxy)cyclohexyl)oxy)ethyl)-1-methyl-5-oxo-2-(pyridin-3-yl)pyrrolidine-3-carboxamide]",37.1,84
"CC(=O)N[C@@H]1C[C@H](NC(C)(C)C)CC[C@@H]1N1CC[C@H](Nc2nc([C@H]3CC[C@@H](NC(=O)[C@H]4CC[C@H](NC(=O)CCCO[C@H]5CC[C@H](OCCNC(=O)[C@H]6CC(=O)N(C)[C@@H]6c6cccnc6)CC5)CC4)CC3)nc3ccc(C(F)(F)F)cc23)C1=O [Example 10, (2S,3S)-N-(2-(((1R,4S)-4-(4-(((1R,4R)-4-(((1R,4S)-4-(4-(((S)-1-((1S,2R,4R)-2-Acetamido-4-(tert-butylamino)cyclohexyl)-2-oxopyrrolidin-3-yl)amino)-6-(trifluoromethyl)quinazolin-2-yl)cyclohexyl)carbamoyl)cyclohexyl)amino)-4-oxobutoxy)cyclohexyl)oxy)ethyl)-1-methyl-5-oxo-2-(pyridin-3-yl)pyrrolidine-3-carboxamide]",35.5,89.71
"CC(=O)N[C@@H]1C[C@H](NC(C)(C)C)CC[C@@H]1N1CC[C@H](Nc2nc([C@H]3CC[C@H](NC(=O)[C@H]4CC[C@H](NC(=O)CCCO[C@H]5CC[C@H](OCCNC(=O)[C@H]6CC(=O)N(C)[C@@H]6c6cccnc6)CC5)CC4)CC3)nc3ccc(C(F)(F)F)cc23)C1=O [Example 11, (2S,3S)-N-(2-(((1R,4S)-4-(4-(((1S,4R)-4-(((1S,4R)-4-(4-(((S)-1-((1S,2R,4R)-2-Acetamido-4-(tert-butylamino)cyclohexyl)-2-oxopyrrolidin-3-yl)amino)-6-(trifluoromethyl)quinazolin-2-yl)cyclohexyl)carbamoyl)cyclohexyl)amino)-4-oxobutoxy)cyclohexyl)oxy)ethyl)-1-methyl-5-oxo-2-(pyridin-3-yl)pyrrolidine-3-carboxamide]",93.4,95.41
